This is an account of results in ChEMBL document CHEMBL4390659, “Molecular hybridization approach for phenothiazine incorporated 1,2,3-triazole hybrids as promising antimicrobial agents: Design, synthesis, molecular docking and in silico ADME studies” (Eur J Med Chem, 2019).

Series [1] concerns Mycobacterium tuberculosis. Nature of the series: Antibacterial activity against Mycobacterium tuberculosis H37Rv ATCC 27294 assessed as reduction in mycobacterial growth incubated for 5 days by MABA method. Particulars: H37Rv ATCC 27294, 120 h. The class given is functional. (The colour change of resazurin is a common sign of viable cells or microbes.)
The subject of a further series is Escherichia coli. Nature of the series: Antibacterial activity against Escherichia coli incubated for 24 hrs by agar dilution method. The class given is functional.
Another series relates to Pseudomonas aeruginosa. The series can be described thus: Antibacterial activity against Pseudomonas aeruginosa incubated for 24 hrs by agar dilution method. The class given is functional. In general terms: Agar dilution tests growth on a series of plates holding different concentrations.
The next series concerns Staphylococcus aureus. Nature of the series: Antibacterial activity against Staphylococcus aureus incubated for 24 hrs by agar dilution method. Format: functional.
A short description of series [2]: Cytotoxicity against African green monkey Vero cells assessed as cell growth inhibition at 6.25 ug/ml incubated for 72 hrs by MTT assay relative to control. Format: cell-based. Particulars: chlorocebus sabaeus, read-out: GI.
The nature of series [3]: Selectivity index, ratio of IC50 for African green monkey Vero cells to MIC for Mycobacterium tuberculosis H37Rv ATCC 27294. Format: toxicity. The settings on record: read-out: Selectivity Index.
In series [4] the test system is Mycobacterium tuberculosis. Nature of the series: Potency index, ratio of ciprofloxacin MIC to test compound MIC against Mycobacterium tuberculosis H37Rv ATCC 27294. The class given is functional.
Series [5] concerns Mycobacterium tuberculosis. The series can be described thus: Potency index, ratio of streptomycin MIC to test compound MIC against Mycobacterium tuberculosis H37Rv ATCC 27294. Format: functional.
In a further series the test system is Vero. Nature of the series: Cytotoxicity against African green monkey Vero cells assessed as reduction in cell viability incubated for 72 hrs by MTT assay. Format: cell-based. The settings on record: Chlorocebus sabaeus. (In general: Formazan colour is commonly taken as a measure of viable cells.)

≈ marks a conversion by molar mass, not a printed value.

The MIC is the lowest concentration that inhibits growth of the organism. As for `NC(=O)c1cnccn1` [PYRAZINAMIDE], in series [1], the MIC came out at 3.12 µg/mL.

Take `CN1c2ccccc2Sc2cc(COCc3cn(Cc4ccc(F)cc4)nn3)ccc21`: the MIC in the series on Escherichia coli amounted to 25 µg/mL (≈ 57.8 µM); in [1], 28.9 µM; in the series on Pseudomonas aeruginosa it was 50 µg/mL (≈ 116 µM); against Staphylococcus aureus it was 25 µg/mL (≈ 57.8 µM).

The IC50 is the concentration that inhibits the measured activity by half. Take `N#Cc1ccc(Cn2cc(CN3c4ccccc4Sc4cc(/C=N/NC(=O)c5cccnc5)ccc43)nn2)cc1`: the inhibition at 72 h, 6.25 ug/ml in [2] amounted to 8.42%. The selectivity ratio in series [3] is 192. Further, the Ratio in [4] and in series [5] was 4 throughout. Also, the MIC in the series with Escherichia coli came out at 25 µg/mL (≈ 46.1 µM); in series [1] it was 2.94 µM; with Pseudomonas aeruginosa, 50 µg/mL (≈ 92.1 µM); with Staphylococcus aureus, 12.5 µg/mL (≈ 23 µM). Moreover, the IC50 in the series on Vero was 1610 µg/mL (≈ 2970 µM).

As for `CN1c2ccccc2Sc2cc(COCc3cn(Cc4ccc([N+](=O)[O-])cc4)nn3)ccc21`, the MIC stood at 50 µg/mL (≈ 109 µM) with Escherichia coli, 54.4 µM in series [1], 50 µg/mL (≈ 109 µM) with Pseudomonas aeruginosa and 25 µg/mL (≈ 54.4 µM) against Staphylococcus aureus.

Regarding `Cc1ccc(Cn2cc(COCc3ccc4c(c3)Sc3ccccc3N4C)nn2)cc1`, the MIC worked out at 100 µg/mL (≈ 233 µM) against Escherichia coli, 58.3 µM in series [1], 100 µg/mL (≈ 233 µM) against Pseudomonas aeruginosa and 50 µg/mL (≈ 117 µM) against Staphylococcus aureus.

As to `N#Cc1ccc(Cn2cc(CN3c4ccc(/C=N/NC(=O)c5ccccc5)cc4Sc4ccc(C(F)(F)F)cc43)nn2)cc1`, the inhibition at 72 h, 6.25 ug/ml in series [2] stood at 12.3%. The selectivity ratio in series [3] was 44.7. Moreover, the Ratio in series [4] and in series [5] was 4 throughout. For the same compound, the minimal inhibitory concentration (MIC) with Escherichia coli came out at 50 µg/mL (≈ 82 µM); in series [1] it was 2.62 µM; against Pseudomonas aeruginosa, 50 µg/mL (≈ 82 µM); with Staphylococcus aureus, 50 µg/mL (≈ 82 µM). Besides, the half-inhibitory concentration (IC50) with Vero stood at 552 µg/mL (≈ 905 µM).

Regarding `CN1c2ccccc2Sc2cc(/C=N/OCc3cn(Cc4ccccc4F)nn3)ccc21`, the MIC is 25 µg/mL (≈ 56.1 µM) in the series on Escherichia coli, 56.1 µM in series [1], 25 µg/mL (≈ 56.1 µM) with Pseudomonas aeruginosa and 12.5 µg/mL (≈ 28.1 µM) with Staphylococcus aureus.

Consider `Cc1ccc(C(=O)N/N=C/c2ccc3c(c2)Sc2ccccc2N3Cc2cn(Cc3ccc(C#N)cc3)nn2)cc1`, for which the inhibition at 72 h, 6.25 ug/ml in [2] worked out at 10.6%. The selectivity ratio in series [3] stood at 42.9. The Ratio in series [4] and in series [5] was 4 each time. The MIC in the series with Escherichia coli amounted to 50 µg/mL (≈ 90 µM); in series [1], 2.87 µM; with Pseudomonas aeruginosa, 100 µg/mL (≈ 180 µM); against Staphylococcus aureus, 25 µg/mL (≈ 45 µM). Moreover, the IC50 in the series on Vero amounted to 456 µg/mL (≈ 821 µM).

In the case of `CN1c2ccccc2Sc2cc(/C=N/OCc3cn(Cc4ccc([N+](=O)[O-])cc4)nn3)ccc21`, the MIC in the series on Escherichia coli was 50 µg/mL (≈ 106 µM); in series [1], 52.9 µM; in the series with Pseudomonas aeruginosa it was 100 µg/mL (≈ 212 µM); against Staphylococcus aureus, 25 µg/mL (≈ 52.9 µM).

In the case of `COc1ccc(Cn2cc(CO/N=C/c3ccc4c(c3)Sc3ccccc3N4C)nn2)cc1`, the MIC with Escherichia coli is 100 µg/mL (≈ 219 µM); in [1], 54.6 µM; against Pseudomonas aeruginosa, 100 µg/mL (≈ 219 µM); with Staphylococcus aureus, 50 µg/mL (≈ 109 µM).

In the case of `CN1c2ccccc2Sc2cc(COCc3cn(Cc4ccccc4F)nn3)ccc21`, the MIC against Escherichia coli worked out at 25 µg/mL (≈ 57.8 µM); in series [1], 28.9 µM; against Pseudomonas aeruginosa it was 50 µg/mL (≈ 116 µM); in the series on Staphylococcus aureus, 25 µg/mL (≈ 57.8 µM).

As for `CN1c2ccccc2Sc2cc(/C=N/OCc3cn(Cc4ccc(F)cc4)nn3)ccc21`, the MIC in the series on Escherichia coli is 25 µg/mL (≈ 56.1 µM); in [1] it was 56.1 µM; in the series with Pseudomonas aeruginosa it was 25 µg/mL (≈ 56.1 µM); in the series on Staphylococcus aureus, 12.5 µg/mL (≈ 28.1 µM).

For the compound `Fc1ccc(Cn2cc(CN3c4ccccc4Sc4ccccc43)nn2)cc1`, in series [2], the inhibition at 72 h, 6.25 ug/ml amounted to 8.34%. In addition, in series [3], the selectivity ratio came to 456. The MIC in the series on Escherichia coli stood at 12.5 µg/mL (≈ 32.2 µM); in series [1] it was 3.12 µg/mL; in the series on Pseudomonas aeruginosa, 12.5 µg/mL (≈ 32.2 µM); in the series on Staphylococcus aureus, 12.5 µg/mL (≈ 32.2 µM). Further, the IC50 in the series on Vero was 3800 µg/mL (≈ 9790 µM).

Turning to `O=C(O)c1cn(C2CC2)c2cc(N3CCNCC3)c(F)cc2c1=O` [CIPROFLOXACIN], the MIC in the series on Pseudomonas aeruginosa worked out at 4 µg/mL (≈ 12.1 µM); against Staphylococcus aureus, 2 µg/mL (≈ 6.04 µM).

`CN1c2ccccc2Sc2cc(/C=N/OCc3cn(Cc4ccc(C#N)cc4)nn3)ccc21`: the minimum inhibitory concentration (MIC) was 25 µg/mL (≈ 55.2 µM) against Escherichia coli, 27.6 µM in series [1], 25 µg/mL (≈ 55.2 µM) against Pseudomonas aeruginosa and 12.5 µg/mL (≈ 27.6 µM) in the series on Staphylococcus aureus.

With `CN1c2ccccc2Sc2cc(COCc3cn(Cc4ccccc4)nn3)ccc21`, the MIC against Escherichia coli turned out to be 50 µg/mL (≈ 121 µM); in [1] it was 60.3 µM; with Pseudomonas aeruginosa it was 100 µg/mL (≈ 241 µM); against Staphylococcus aureus, 50 µg/mL (≈ 121 µM).
